# Laboratory results: PubChem BioAssay AID2060622 (Molecular Pharmacology Branch, DTP, NCI, 2025)
# Test system: 242566-281-R-J2-PDC complex spheroid viability
# Assay: Anticancer human tumor 242566-281-R-J2-PDC patient-derived pancreatic carcinoma cell line growth inhibition [CLK]
# Conditions: for IC50: curve of first compound; for viability, T/C: stronger effect = lower value
# Source text: A high-throughput screen of multi-cell type tumor spheroids was designed to identify active combinations of […] and targeted small molecules. Complex spheroids include a stromal component modeled by human endothelial cells (HUVEC) and fibroblasts modeled by human mesenchymal stem cells (MSCs). The concentration ranges selected for each drug and investigational agent were based upon clinically achievable concentrations if the clinical Cmax of the agent was known.
# Compounds. The drugs and investigational agents: cirtuvivint (SM08502; NSC835563), CC-671 (NSC850746), vemurafenib (NSC761431), tapotoclax (NSC804041), sotorasib (NSC818433), adagrasib (NSC831453), MRTX-1133 (NSC836407), BAY2416964 (NSC825713), copanlisib (NSC816437), inavolisib (NSC800729), abemaciclib (NSC768073), osimertinib (NSC779217), entinostat (NSC756642), eltanexor (KPT-8602, NSC794443), venetoclax (NSC766270), ceralasertib (NSC777638), bortezomib (NSC756655), olaparib (NSC753686), talazoparib (NSC767125), alisertib (NSC759677), peposertib (NSC802822), gemcitabine (NSC613327), 5-fluorouracil (NSC19893), SN-38 (NSC673596), oxaliplatin (NSC266046), paclitaxel (NSC125973), and doxorubicin (NSC123127), were obtained from the National Cancer Institute (NCI) Developmental Therapeutics Program Chemical Repository. The FDA-approved anticancer drug set is available from the Developmental Therapeutics Program at https://dtp.cancer.gov/organization/dscb/obtaining/available plates.htm. […] The stock solutions were prepared in dimethyl sulfoxide (DMSO, Sigma-Aldrich, St. Louis, MO, cat. D2650), except for the platinum complexes which were prepared in saline (Quality Biological, Gaithersburg, MD, cat. 114-055-101), at 800-fold the tested concentration and stored at -70 degrees C prior to their use. All drugs and investigational agents were tested over a range starting from a high concentration at or near the clinical Cmax and decreasing in half-log increments. If the clinical Cmax for an agent had not been determined, the highest concentration tested was 10 microM.
# Cell Culture. All cells were maintained in an incubator at 37 degrees C and 5% CO2 with 95% humidity. The PDC lines were cultured according to standard operating procedures established by the NCI PDMR. Briefly, all PDCs were thawed and cultured in Matrigel-coated flasks prepared with a working solution of 1X Ham's F-12 nutrient mix, without supplementation (Invitrogen, Waltham, MA, cat. 11765054), 100 U/mL penicillin-streptomycin (Invitrogen, cat. 15140122), and 2.5% Matrigel (Corning Inc., Corning, NY, cat. 354248) for the first three passages. The 947758-054-R-J2-PDC line was cultured in 6B/Colon 1A media, which includes advanced DMEM/F-12 (Thermo Fisher Scientific, cat. 12634028), 10 mM HEPES (Thermo Fisher Scientific, cat. 15630080), 1X GlutaMAX supplement (Thermo Fisher Scientific, cat. 35050061), 0.1 mg/mL primocin (InvivoGen, cat. ant-pm-2), 10% defined fetal bovine serum, heat inactivated (HyClone Laboratories Inc., cat. SH30070.03HI), 1.25 mM N-Acetyl-L-cysteine (Sigma-Aldrich, cat. A9165), 10 mM nicotinamide (Sigma-Aldrich, cat. N0636), 1X B-27 supplement (Thermo Fisher Scientific, cat. 17504044), 1X N-2 supplement (Thermo Fisher Scientific, cat. 17502048), and 10 microM Y-27632 dihydrochloride (Tocris Bioscience, cat. 1254). The 876862-298-R-J1-PDC was cultured in 6E media, which includes all 6B/Colon 1A media components plus 50% L-WRN conditioned media (ATCC, cat. CRL-3276), 50 ng/mL recombinant human EGF recombinant protein (hEGF; Thermo Fisher Scientific, cat. PHG0311), 10 ng/mL recombinant human fibroblast growth factor 10 (hGFG-10; PeproTech, cat. 100-26), 1 ng/mL recombinant human fibroblast growth factor 2 (hFGF-2; PeproTech, cat. 100-18B), and 1 µM prostaglandin E2 (PGE2; Tocris, cat. 2296). The 227483-062-R1-J1-PDC line was cultured in Panc media, containing all 6E components except hFGF-2, with the addition of 500 nM SB-431542 (Selleckchem, cat. S1067) and 10 nM gastrin (Tocris, cat. 3006). […]
# 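Note: spheroids exposed to compounds for 7 days before readout.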
# 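Throughout, for viability, T/C: 100% = DMSO vehicle control wells.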
compound,measurement,setting,value
CC(C)CC(NC(=O)C(Cc1ccccc1)NC(=O)c1cnccn1)B(O)O (configuration not stated) + CNC(=O)c1ccc(Nc2nc(OC3CCCC3)c3c(-c4ccc5nc(C)oc5c4)c[nH]c3n2)c(OC)c1,IC50,second compound 0.0316 µM,4.24 nM
same,IC50,second compound 0.1 µM,3.81 nM
same,IC50,second compound 0.316 µM,2.77 nM
same,IC50,second compound 1 µM,1.56 nM
same,IC50,second compound 3.16 µM,1.19 nM
same,IC50,second compound 10 µM,1.15 nM
same,"viability, T/C","second compound 0.0316 µM, first compound 0.000949 µM",82.2%
same,"viability, T/C","second compound 0.0316 µM, first compound 0.003 µM",71.1%
same,"viability, T/C","second compound 0.0316 µM, first compound 0.00949 µM",0.73%
same,"viability, T/C","second compound 0.0316 µM, first compound 0.03 µM",0.63%
same,"viability, T/C","second compound 0.0316 µM, first compound 0.0949 µM",0.4%
same,"viability, T/C","second compound 0.0316 µM, first compound 0.3 µM",0.56%
same,"viability, T/C","second compound 0.1 µM, first compound 0.000949 µM",83.3%
same,"viability, T/C","second compound 0.1 µM, first compound 0.003 µM",62.8%
same,"viability, T/C","second compound 0.1 µM, first compound 0.00949 µM",0.92%
same,"viability, T/C","second compound 0.1 µM, first compound 0.03 µM",0.76%
same,"viability, T/C","second compound 0.1 µM, first compound 0.0949 µM",0.35%
same,"viability, T/C","second compound 0.1 µM, first compound 0.3 µM",0.57%
same,"viability, T/C","second compound 0.316 µM, first compound 0.000949 µM",83%
same,"viability, T/C","second compound 0.316 µM, first compound 0.003 µM",47.5%
same,"viability, T/C","second compound 0.316 µM, first compound 0.00949 µM",0.7%
same,"viability, T/C","second compound 0.316 µM, first compound 0.03 µM",0.78%
same,"viability, T/C","second compound 0.316 µM, first compound 0.0949 µM",0.3%
same,"viability, T/C","second compound 0.316 µM, first compound 0.3 µM",0.78%
same,"viability, T/C","second compound 1 µM, first compound 0.000949 µM",73.2%
same,"viability, T/C","second compound 1 µM, first compound 0.003 µM",19.7%
same,"viability, T/C","second compound 1 µM, first compound 0.00949 µM",0.52%
same,"viability, T/C","second compound 1 µM, first compound 0.03 µM",0.28%
same,"viability, T/C","second compound 1 µM, first compound 0.0949 µM",0.45%
same,"viability, T/C","second compound 1 µM, first compound 0.3 µM",0.4%
same,"viability, T/C","second compound 3.16 µM, first compound 0.000949 µM",60.6%
same,"viability, T/C","second compound 3.16 µM, first compound 0.003 µM",6.63%
same,"viability, T/C","second compound 3.16 µM, first compound 0.00949 µM",0.34%
same,"viability, T/C","second compound 3.16 µM, first compound 0.03 µM",0.29%
same,"viability, T/C","second compound 3.16 µM, first compound 0.0949 µM",0.35%
same,"viability, T/C","second compound 3.16 µM, first compound 0.3 µM",0.37%
same,"viability, T/C","second compound 10 µM, first compound 0.000949 µM",59.4%
same,"viability, T/C","second compound 10 µM, first compound 0.003 µM",3.83%
same,"viability, T/C","second compound 10 µM, first compound 0.00949 µM",0.57%
same,"viability, T/C","second compound 10 µM, first compound 0.03 µM",0.53%
same,"viability, T/C","second compound 10 µM, first compound 0.0949 µM",0.43%
same,"viability, T/C","second compound 10 µM, first compound 0.3 µM",0.42%
